Experimental data published in PMC8698721, “Exploration of the Structure–Function Relationships of a Novel Frog Skin Secretion-Derived Bioactive Peptide, t-DPH1, through Use of Rational Design, Cationicity Enhancement and In Vitro Studies” (Antibiotics, 2021).
In brackets after ≈: the same amount, converted by molar mass. Like-named read-outs stand apart in the source and are kept apart here. Where a SMILES comes first, the peptide text is derived from it.

Tests used:
[1] = system: NCI-H157 (human non-small cell lung cancer cell line); type: cell-based; conditions: 24 h
Experimental: (§1) The MTT assay was conducted to verify the proliferation inhibitory effect of t-DPH1 and its analogues. Human cancer cell lines (NCI-H838 (ATCC® CRL-5844, human non-small cell lung cancer)), (NCI-H157(ATCC® CRL-5802, human non-small cell lung cancer cell line)), (U251MG (ECACC 09063001, human neuronal glioblastoma cancer cell line)), (PC-3 (ATCC® CRL-1435TM, human prostate carcinoma cancer cell line)) and normal human cell lines (HMEC-1(ATCC®-CRL-3243, human microvascular endothelial cell line)) and (HaCaT (ATCC®-PCS-200-011, human keratinocyte cell)) were purchased from the American Type Culture Collection (ATCC, Manassas, VA, USA) and the European Collection of Cell Cultures (ECACC, Sallisbury, UK) for this assay. For the MTT assay, 8000 cells/per well were seeded in the 96-well plate for 24 h. Subsequently, experiment groups were dosed with fresh serum-free medium containing different concentrations of peptides (100 μM to 10 nM) in 3 replicates. Negative control groups and positive control groups were dosed with the fresh serum-free medium containing equal amounts of PBS, and 0.1% (w/v) Triton X-100, respectively. Then the 96-well plate was incubated at 37 °C with 5% CO2 for 24 h. After, ten microliters of MTT solution (5 mg/mL) (Sigma-Aldrich UK Ltd., Gillingham, UK) were added to each well and incubated in a dark environment for two hours. Then, the solution in each well was removed and 100 μL of DMSO were added and then the plate was shaken for 10 min on a shaking incubator before detecting the OD value by use of a Synergy HT plate reader (BioTek, Minneapolis, MN, USA) at λ = 570 nm.

[2] = system: U251MG (human neuronal glioblastoma cancer cell line); type: cell-based; conditions: 24 h
Experimental: as §1

[3] = system: PC-3 (human prostate carcinoma cancer cell line); type: cell-based; conditions: 24 h
Experimental: as §1

[4] = system: HMEC-1 (human microvascular endothelial cell line); type: cell-based; conditions: 24 h
Experimental: as §1

[5] = system: HaCaT (human keratinocyte cell); type: cell-based; conditions: 24 h
Experimental: as §1

[6] = system: NCI-H838 (human non-small cell lung cancer); type: cell-based; conditions: 24 h
Experimental: as §1

[7] = system: P. aeruginosa (ATCC 9027); type: cell-based, Pseudomonas aeruginosa; conditions: ATCC 9027, 24 h
Experimental: (§2) To assess the antimicrobial activity of t-DPH1 and its designed analogues, MIC and MBC assays were conducted. Seven microorganism strains were used in the assay: Gram-positive bacteria S. aureus (ATCC 6538), E. faecalis (NCTC 12697) and MRSA (NCTC 12493); Gram-negative bacteria E. coli (ATCC 8739), P. aeruginosa (ATCC 9027) and K. pneumoniae (ATCC 43816); yeast, C. albicans (ATCC 10231).
(§3) For MIC assay, the microorganisms were initially incubated in Mueller-Hinton broth (MHB) (for bacteria) or yeast extract peptone dextrose broth (YPD-B) (for yeast) overnight and sub-cultured to achieve their respective logarithmic growth phases (5 × 10^5 CFU/mL). Then, 99 μL of each microorganism and 1 μL of the tested peptide solution were incubated in a 96-well plate. The final on-plate peptide concentrations were from 1 to 512 μM. Except for the peptide group, four other groups were set when conducting this experiment, including a negative control group (PBS), a vehicle control group (1% DMSO), a positive control group (bacteria: 20 μg/mL norfloxacin; yeast: amphotericin B) and a blank control group (MHB or YPD-B with no microorganism culture). Thus, the MIC value represents the lowest concentration of peptides at which no visible growth of the microorganism after 24 h incubation. For the MBC assay, 10 μL of the medium from each clear well was inoculated onto a Mueller–Hinton agar (MHA) (for bacteria) or yeast extract peptone dextrose agar (YPD-A) (for yeast) plate and incubated for 24 h for measurement MBC values.

C. albicans (ATCC 10231) = type: cell-based, Candida albicans; conditions: ATCC 10231, 24 h
Experimental: as §2, §3

horse red blood cells = type: cell-based
Experimental: The haemolysis assay was performed by mixing 2% (v/v) fresh defibrinated horse blood (TCS Biosciences Ltd., Buckingham, UK) with peptides in different concentrations. Before the test, horse blood was rinsed with PBS three to four times until the supernatant was clear. Next, peptide solutions (from 100 μM to 1 nM) were incubated with the suspension of red blood cells at 37 °C for two hours. The blood cells treated with 1% Triton-X 100 were used as the positive control, and the blood cells treated with PBS were used as the negative control. After incubation, 100 μL of the supernatant from each sample were transferred to a new 96-well plate, and the OD value of each well was measured with a Synergy HT plate reader (BioTek, Minneapolis, MN, USA) with the absorbance set to 570 nm.

S. aureus (ATCC 6538) = type: cell-based, Staphylococcus aureus; conditions: ATCC 6538, 24 h
Experimental: as §2, §3

[8] = system: K. pneumoniae (ATCC 43816); type: cell-based, Klebsiella pneumoniae; conditions: ATCC 43816, 24 h
Experimental: as §2, §3

E. coli (ATCC 8739) = type: cell-based, Escherichia coli; conditions: ATCC 8739, 24 h
Experimental: as §2, §3

[9] = system: Enterococcus faecalis (E. faecalis) (NCTC 12697); type: cell-based; conditions: NCTC 12697, 24 h
Experimental: as §2, §3

[10] = system: Methicillin-resistant Staphylococcus aureus (MRSA) (NCTC 12493); type: cell-based; conditions: NCTC 12493, 24 h
Experimental: as §2, §3

Compound	IC50 [1] [µM]	IC50 [2] [µM]	IC50 [3] [µM]	IC50 against HMEC-1 [4] [µM]	IC50 against HaCaT [5] [µM]	IC50 [6] [µM]	MBC [7] [µM]	MIC [7] [µM]	MBC (C. albicans (ATCC 10231)) [µM]	MIC (C. albicans (ATCC 10231)) [µM]	MBC (S. aureus (ATCC 6538)) [µM]	MIC (S. aureus (ATCC 6538)) [µM]	MBC [8] [µM]	MIC [8] [µM]	MBC (E. coli (ATCC 8739)) [µM]	MIC (E. coli (ATCC 8739)) [µM]	MBC [9] [µM]	MIC [9] [µM]	MBC [10] [µM]	MIC [10] [µM]	also measured
CC[C@H](C)[C@H](NC(=O)[C@H](CCCCN)NC(=O)[C@H](CCCCN)NC(=O)[C@H](Cc1c[nH]c2ccccc12)NC(=O)[C@H](CC(C)C)NC(=O)CN)C(=O)N[C@@H](CCCCN)C(=O)N[C@@H](CC(N)=O)C(=O)N[C@H](C(=O)N[C@@H](C)C(=O)N[C@@H](C)C(=O)N[C@@H](C)C(=O)N[C@@H](C)C(=O)NCC(=O)N[C@@H](CCCCN)C(=O)N[C@@H](C)C(=O)N[C@@H](C)C(=O)N[C@@H](CC(C)C)C(=O)NCC(=O)N[C@@H](C)C(=O)N[C@@H](CC(C)C)C(N)=O)C(C)C [t-DPH1-K4] (H-GLWKKIKNVAAAAGKAALGAL-NH2)	6.14	32.2	19	46.02	63.37	10.1	16 (≈ 32.8 µg/mL)	8 (≈ 16.4 µg/mL)	64 (≈ 131 µg/mL)	32 (≈ 65.6 µg/mL)	4 (≈ 8.2 µg/mL)	2 (≈ 4.1 µg/mL)	4 (≈ 8.2 µg/mL)	2 (≈ 4.1 µg/mL)	2 (≈ 4.1 µg/mL)	1 (≈ 2.05 µg/mL)	32 (≈ 65.6 µg/mL)	32 (≈ 65.6 µg/mL)	4 (≈ 8.2 µg/mL)	2 (≈ 4.1 µg/mL)	HC50 (horse red blood cells; red cells of horse): 444.8 µM
CC[C@H](C)[C@H](NC(=O)[C@H](CCCCN)NC(=O)[C@H](CCCCN)NC(=O)[C@H](Cc1c[nH]c2ccccc12)NC(=O)[C@H](CC(C)C)NC(=O)[C@@H](N)Cc1c[nH]c2ccccc12)C(=O)N[C@@H](CCCCN)C(=O)N[C@@H](CC(N)=O)C(=O)N[C@H](C(=O)N[C@@H](C)C(=O)N[C@@H](CCCCN)C(=O)N[C@@H](C)C(=O)N[C@@H](C)C(=O)NCC(=O)N[C@@H](CCCCN)C(=O)N[C@@H](C)C(=O)N[C@@H](C)C(=O)N[C@@H](CCCCN)C(=O)NCC(=O)N[C@@H](C)C(=O)N[C@@H](CC(C)C)C(N)=O)C(C)C [t-DPH1-6KW] (H-WLWKKIKNVAKAAGKAAKGAL-NH2)	427	–	118	293.2	119.3	181	128 (≈ 288 µg/mL)	64 (≈ 144 µg/mL)	> 512	512 (≈ 1150 µg/mL)	128 (≈ 288 µg/mL)	128 (≈ 288 µg/mL)	64 (≈ 144 µg/mL)	64 (≈ 144 µg/mL)	4 (≈ 9.01 µg/mL)	2 (≈ 4.5 µg/mL)	> 512	512 (≈ 1150 µg/mL)	256 (≈ 576 µg/mL)	128 (≈ 288 µg/mL)	HC50 (horse red blood cells): 2094 µM
CC[C@H](C)[C@H](NC(=O)[C@H](CCCCN)NC(=O)[C@H](CCCCN)NC(=O)[C@H](Cc1c[nH]c2ccccc12)NC(=O)[C@H](CC(C)C)NC(=O)CN)C(=O)N[C@@H](CCCCN)C(=O)N[C@@H](CC(N)=O)C(=O)N[C@H](C(=O)N[C@@H](C)C(=O)N[C@@H](CCCCN)C(=O)N[C@@H](C)C(=O)N[C@@H](C)C(=O)NCC(=O)N[C@@H](CCCCN)C(=O)N[C@@H](C)C(=O)N[C@@H](C)C(=O)N[C@@H](CC(C)C)C(=O)NCC(=O)N[C@@H](C)C(=O)N[C@@H](CC(C)C)C(N)=O)C(C)C [t-DPH1-5K] (H-GLWKKIKNVAKAAGKAALGAL-NH2)	1.55	2.68	2.6	3.897	3.332	1.8	8 (≈ 16.9 µg/mL)	4 (≈ 8.43 µg/mL)	512 (≈ 1080 µg/mL)	256 (≈ 540 µg/mL)	2 (≈ 4.22 µg/mL)	2 (≈ 4.22 µg/mL)	4 (≈ 8.43 µg/mL)	2 (≈ 4.22 µg/mL)	4 (≈ 8.43 µg/mL)	2 (≈ 4.22 µg/mL)	16 (≈ 33.7 µg/mL)	8 (≈ 16.9 µg/mL)	4 (≈ 8.43 µg/mL)	2 (≈ 4.22 µg/mL)	haemolysis (horse red blood cells; 10 µM): ~40%; HC50 (horse red blood cells; red cells of horse): 19.39 µM
CC[C@H](C)[C@H](NC(=O)[C@H](CCCCN)NC(=O)[C@H](CCCCN)NC(=O)[C@H](Cc1c[nH]c2ccccc12)NC(=O)[C@H](CC(C)C)NC(=O)CN)C(=O)N[C@@H](CCCCN)C(=O)N[C@@H](CC(N)=O)C(=O)N[C@H](C(=O)N[C@@H](C)C(=O)N[C@@H](CCCCN)C(=O)N[C@@H](C)C(=O)N[C@@H](C)C(=O)NCC(=O)N[C@@H](CCCCN)C(=O)N[C@@H](C)C(=O)N[C@@H](C)C(=O)N[C@@H](CCCCN)C(=O)NCC(=O)N[C@@H](C)C(=O)N[C@@H](CC(C)C)C(N)=O)C(C)C [t-DPH1-6K] (H-GLWKKIKNVAKAAGKAAKGAL-NH2)	88.3	594	55.6	340.2	151.4	186	16 (≈ 34 µg/mL)	8 (≈ 17 µg/mL)	128 (≈ 272 µg/mL)	64 (≈ 136 µg/mL)	8 (≈ 17 µg/mL)	4 (≈ 8.49 µg/mL)	8 (≈ 17 µg/mL)	4 (≈ 8.49 µg/mL)	4 (≈ 8.49 µg/mL)	2 (≈ 4.25 µg/mL)	512 (≈ 1090 µg/mL)	256 (≈ 543 µg/mL)	64 (≈ 136 µg/mL)	32 (≈ 67.9 µg/mL)	HC50 (horse red blood cells; red cells of horse): 834.6 µM
